This experiment deals with glucocorticoid receptor. Kind of experiment: Maize protoplast GUS reporter assay with pMF6HR1PAT (GR) and p221.9GRE6. Type of experiment: cell-based, Human. Conditions: maize protoplasts, reporter plus effector, concentration not given. An excerpt: The glucocorticoid receptor DNA for the Maize transient expression construct was produced via the polymerase chain reaction (PCR) of Human Fibrosarcoma cDNA (HT1080 cell line, ATCC#CC1121) library (Clontech see Hollenberg et al., 1985). The PCR approach taken was to amplify the 2.7 kb fragment encoding the glucocorticoid receptor in two segments. The first segment entails the N-terminal end up to and including the DNA binding domain while the second fragment begins with the hinge region (amino acid 500) thought to the end of the reading frame. Thus, the PCR primer for the N-terminal end segment was designed to contain an EcoRI site and the Kozak consensus sequence for translation initiation: GREcoRI 5′ […] 3′ (SEQ ID NO: 32).
The 2.7 kb EcoRI fragment was subcloned into the vector pMF6PAT EcoRI resulting in pMF6HGIPAT (FIG. 10).
Two reporter plasmids were made by inserting the into p221.9 or p221.10 BamHI/HindIII vectors two pairs or oligonucleotides containing six copies of the glucocorticoid response element (GRE). […]
Protoplasts were isolated from a maize suspension culture derived from BE70×A188 embryogenic callus material, which was maintained by subculturing twice weekly in MS0.5mod. […] The pellet was resuspended in wash buffer and the protoplasts were counted. […] Protein concentrations of tissue homogenates were determined by the Bio-Rad protein assay (Bradford, 1976). […]
(In general: Reporter assays use an easily measured gene product as a stand-in for the process of interest.)

SMILES strings stand for the structures.

Regarding `CC(C)CC[C@@H](O)[C@](C)(O)[C@H]1CC[C@@]2(O)C3=CC(=O)[C@]4(O)C[C@@H](O)[C@@H](O)C[C@]4(C)[C@H]3[C@H](O)C[C@]12C` [Muristerone A], the “induced levels of expression” value was “does not lead to induced levels of expression”.
